Results as given in patent US4017534A, “16-Fluoro-11-deoxy-13-dihydro-prostaglandin” (American Cyanamid Company, priority 1975, dated 1977).
Like-named read-outs stand apart in the source and are kept apart here. One block for each molecule: values may come before it.

Legend:
[1] = tested on: bronchospasms elicited by 5-hydroxytryptamine; experiment: Bronchodilator activity (intraduodenal route) against 5-hydroxytryptamine; assay type: in vivo, guinea pigs; set-up: key: 0: no activity; +: minimal activity; ++++: maximum activity; conditions: intraduodenal dose 3.2 mg./kg.
Method: (§1) The compounds of this invention are useful as bronchodilators for the treatment of asthma and chronic bronchitis. Bronchodilator activity is determined in guinea pigs against bronchospasms elicited by intravenous injections of 5-hydroxytryptamine, histamine or acetylcholine by the Konzett procedure. [See J. Lulling, P. Lievens, F. El Sayed and J. Prignot, Arzneimittel-Forschung, 18, 995 (1968).]
(§2) In Table A' which follows bronchodilator activity for representative compounds of this invention against one or more of three spasmogenic agents is reported. In this assay candidate compounds are suspended in 10% gum arabic solution and the suspension is administered by the intraduodenal route. The activity of the compound at any one dose is then investigated throughout the following hour (see above-cited reference, J. Lulling et al.). Potency is then reported as O, +, ++, +++, or ++++, wherein 0 represents no activity, + minimal activity and ++++ maximum activity.

[2] = tested on: bronchospasms elicited by acetylcholine; experiment: Bronchodilator activity (intraduodenal route) against acetylcholine; assay type: in vivo, guinea pigs; set-up: key: 0: no activity; +: minimal activity; ++++: maximum activity; conditions: intraduodenal dose 3.2 mg./kg.
Method: as §1, §2

cough = experiment: Cough induction by aerosol in human; assay type: in vivo
Method: (§3) The novel ketals of this invention also show bronchodilator activity when administered by aerosol to dogs wherein bronchoconstriction was induced by administration of pilocarpine. […] This is very important since coughing is one of the damaging side effects reported in the literature when prostaglandin aerosols are administered to human subjects. [See Y. Kawakami et al., European Journal Clinical Pharmacology, 6, 127 (1973); M. F. Cuthbert, Brit. Med. Journ. 723 (Dec. 20, 1969); H. Herxheimer and I. Roetscher, European Journal Clinical Pharmacology, 3, 123 (1971).]

[3] = tested on: basal gastric acid secretion; experiment: Inhibition of total acid output in the acute gastric fistula rat; assay type: in vivo, Female Sprague-Dawley rats; conditions: intraduodenal route; for ED50: Rattus norvegicus, Table C
Method: The compounds of this invention are also useful as inhibitors of gastric acid secretion and peptic ulcer formation and may be used for the treatment of gastric hyperacidity, gastric erosion, and peptic ulcer. Inhibition of basal gastric acid secretion can be determined by the following procedure.
Female Sprague-Dawley rats weighting 140-160 grams are fasted in individual cages for 18-24 hours. The rats are then lightly anesthetized with ether and their front teeth extracted to avoid destruction of the plastic cannula. A midline incision is then made and the stomach and duodenum exposed. A flanged polyvinyl tube is inserted into the fundic portion of the stomach and secured with a purse string suture line using 4-O Mersilene. The rat is then dosed by injection of the compound into the duodenum (1.0 ml. per 100 gram body weight). After dosing, the abdominal wall and skin are closed using metal wound clips. The rate is replaced in a cage containing a longitudinal slit to allow the polyvinyl tube to hang freely. An 8 ml. plastic collecting tube is attached to the flanged cannula and hangs freely below the cage. The first 30 minute sample is discarded designating this time as zero. The collecting tube is attached again and samples removed at the end of 60 and 120 minutes. These samples are referred to as "A" and "B" in the table. The hourly samples are then transferred to a 15 ml. centrifuge and centrifuged for 5-10 minutes. Total and sediment volume are then recorded with the supernatent volume being used as volume of secretion. A 1 ml. or less aliquot is then removed and placed in a 50 ml. beaker containing 10 ml. of distilled water. This sample is then titrated using 0.01N NaOH to pH 7.0 using a Beckman zeromatic pH meter. Volume, titratable acidity (meg.L) and total acid output (μeg/hour) are recorded. Percent inhibition is determined by comparison with the appropriate control. Groups of three rats were used for preliminary testing, and groups of six rats were used for dose-response evaluations. All compounds are administered in a vehicle consisting of 0.5% methocel, 0.4% tween 80, and saline at a constant volume of 1 ml./100 gram rat. Samples are dispersed by sonification. Percent inhibition is calculated on basis of concurrent vehicle control.
In Table B which follows is given the effect on total acid output after 120 minutes of a 10 mg./kg. dose of representative ketals of this invention. For comparison the result obtained with the corresponding 9-oxo derivative, l 9-oxo-15(S)-hydroxyprostanoic acid is included.
Dose response evaluation in the acute gastric fistual rat assay further illustrates the pronounced advantage of the novel ketals of this invention as gastric acid secretion inhibitors relative to the corresponding 9-oxo derivative.

[4] = tested on: bronchospasms elicited by intravenous injections of acetylcholine; experiment: Bronchodilator activity (Konzett assay, intravenous) against acetylcholine; assay type: in vivo, guinea pigs; conditions: Cavia porcellus, guinea pig, spasmogen acetylcholine, read-out: Bronchodilator Activity (Konzett Assays) ED50, acetylcholine
Method: as §1
(§4) In Table A which follows bronchodilator activity for representative compounds of this invention against one or more of three spasmogenic agents is expressed as an ED50 determined from the results obtained with three logarithmic cumulative intravenous doses.

[5] = tested on: bronchospasms elicited by intravenous injections of histamine; experiment: Bronchodilator activity (Konzett assay, intravenous) against histamine; assay type: in vivo, guinea pigs; conditions: Cavia porcellus, guinea pig, spasmogen histamine, read-out: Bronchodilator Activity (Konzett Assays) ED50, histamine
Method: as §1, §4

[6] = tested on: bronchospasms elicited by intravenous injections of 5-hydroxytryptamine; experiment: Bronchodilator activity (Konzett assay, intravenous) against 5-hydroxytryptamine; assay type: in vivo, guinea pigs; conditions: Cavia porcellus, guinea pig, spasmogen 5-hydroxytryptamine, read-out: Bronchodilator Activity (Konzett Assays) ED50, 5-hydroxytryptamine
Method: as §1, §4

[7] = tested on: bronchoconstriction induced by administration of pilocarpine; experiment: Bronchodilator activity by aerosol in dogs; assay type: in vivo
Method: as §3

gastric acid secretion = experiment: Gastric acid secretion inhibition, Shay-rat procedure; assay type: in vivo, rats (male, CFE strain); conditions: intraduodenal dose 100 mg./kg. of body weight
Method: Gastric acid secretion inhibition can also be observed in an assay wherein acid secretion is stimulated as in the well-known "Shay-rat" procedure, which is carried out in the following manner.
The rats (male, CFE strain) were starved for 48 hours (water was given ad libitum) to permit evacuation of stomach contents. On the morning of the experiment, under ether anesthesia, the abdominal region was shaved and a midline incision (1-11/2 inch) was made with a scapel. With the help of a closed curved hemostat the duodenum was picked up. […]
The abdominal cavity was exposed by cutting with scissors and the esophagus close to the stomach was clamped off with a hemostat, the stomach was removed by cutting above the hemostat (the esophagus was cut) and between the two sutures. […] The supernatant was collected, volume measured and recorded, 2 drops of a phenolphthalein indicator (1% in 95% ethanol) were added and the solution was tritrated with 0.02N NaOH (or with 0.04N NaOH when large volumes of stomach contents were encountered) to pH 8.4 (because of usual coloring of the stomach contents, phenolphthalein was only used to permit visual indication that the end point was near) and the amount of acid present was calculated. […]

SMILES: CCCCC[C@H](O)CC[C@H]1CCC2(OCCCO2)[C@@H]1CCCCCCC(=O)O [l-15(S)-hydroxy-9,9-(propylenedioxy)-prostanoic acid]
- Bronchodilator potency, Spasmogenic Agent 5-Hydroxytryptamine [1]: +
- Bronchodilator potency, Spasmogenic Agent Acetylcholine [2]: +

- induction of cough by aerosol (cough): does not induce cough
SMILES: CCCCC[C@H](O)CC[C@H]1CCC2(OCCO2)[C@@H]1CCCCCCC(=O)O [l-9,9-(ethylenedioxy)-15(S)-hydroxy-prostanoic acid]
- inhibition in vivo at 10 mg/kg ([3]; 2 h, 10 mg./kg., rat, read-out: %-Inhibition of Total Acid Output After 120 Minutes): 63%
- ED50 ([3]; 1 hr. collection, read-out: ED50, 1 hr. collection (A)): 1 mg/kg
- ED50 ([3]; 2 hr. collection, read-out: ED50, 2 hr. collection (B)): 2.3 mg/kg
- ED50 [4]: 0.0274 mg/kg
- ED50 [5]: 0.000376 mg/kg
- ED50 [6]: 0.00253 mg/kg
- bronchodilator activity by aerosol ([7]; aerosol concentration 0.032%): fully-present
- potency of the ketal relative to the ketone ([7]; aerosol, versus l 9-oxo-15(S)-hydroxyprostanoic acid): at least 10 times

SMILES: CCCCCC(O)CCC1CCC2(OCCO2)C1CCCCCCC(=O)O (racemic) [9,9-(ethylenedioxy)-15-hydroxy-prostanoic acid]
- Percent Inhibition (gastric acid secretion, Shay rat) (gastric acid secretion): 56%
